SMILES strings stand for the structures. ≈ marks a conversion by molar mass, not a printed value.

Common to all, as to assay type: cell-based
The subject of one assay is Candida albicans 90028. In words: In vitro antifungal assay (Example IX), microdilution broth, MIC. Particulars: minimum inhibitory concentration (≥50% inhibition), 35° C., 40-48 h, RPMI1640. The method in brief:
(§1)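 Yeast inocula (2.5×10^3 cells/mL, RPMI1640) were exposed to twofold compound series reaching 2-0.0019 μg/mL final, per CLSI yeast methodology. Incubation at 35° C. ran 40-48 h for Candida albicans 90028 and 72 h for Cryptococcus neoformans H99. MIC endpoints were confirmed by absorbance at 600 nm.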
In general terms: Dilution methods test growth across graded concentrations, often in twofold steps.

In assay [1] the test system is Cryptococcus neoformans H99. The description is as above. The conditions noted are these: minimum inhibitory concentration (≥50% inhibition), 35° C., 72 h, RPMI1640. The method in brief:
as §1

In the next assay the test system is Cryptococcus gattii. The description is as above. Particulars: minimum inhibitory concentration (≥50% inhibition), 35° C., 72 h (Cryptococcus), RPMI1640. How it is done:
Preparation of Fungal Suspension. C. albicans 90028 and C. neoformans H99 strains were streaked from frozen stocks at −80° C. onto Sabouraud Dextrose Agar (SDA) plates. These were allowed to grow for 24 h (C. albicans) and 48 h (C. neoformans) at 35° C. before using them in the assay. 5-6 individual colonies were picked and diluted into sterile water to obtain a fungal suspension. The cell density of the suspension was determined and the culture diluted with RPMI1640 medium to obtain a fungal suspension of 2.5×10^3 cells/mL. The suspension was used in the MIC measurement as described below.
Preparation of Compound Stocks and Intermediate Dilutions: The compounds were weighed and DMSO was added to prepare a 10 mg/mL stock. The solutions were mixed by vortexing and sonication at 37° C. for 5-10 mins. The resulting solutions were sterile filtered using a PTFE filter, and aliquoted (12 μL or as needed) and stored at −20° C. Intermediate compound dilutions were prepared in sterile polypropylene tubes in 100% DMSO. The compound stock solution was first diluted in DMSO to obtain a concentration of […] to 0.19 μg/mL.
MIC/MEC Measurement: 99 μL 1 of the fungal suspension in RPMI1640 prepared as above was added to each well of a 96-well round bottom assay plate. 1 μL of the intermediate compound dilutions (200-0.19 μg/mL) were added to wells of the plate. This led to a 100-fold dilution of the intermediate dilutions resulting in a final compound concentration of 2-0.0019 μg/mL in the plate. 1 μL of DMSO was added to “No drug” control wells. The solutions were mixed by shaking on a plate shaker for 10 mins and plates incubated at 35° C. for 40-48 h (C. albicans, A. fumigatus, R. pusillus) and 72 h (Cryptococcus). […] This was validated by thorough mixing and reading at 600 nm on a microplate reader. The minimum concentration that led to shortening of hyphae as compared to hyphal growth in DMSO control wells was determined as the minimum effective concentration (MEC) for A. fumigatus and R. pusillus (as read for echinocandins). The use of the MIC and MEC endpoints against yeasts and molds, respectively has been described by Pfaller M A, Duncanson F, Messer S A, Moet G J, Jones R N, Castanheira M. Antimicrob Agents Chemother. 2011. 55(11):5155-8. In vitro activity of a novel broad-spectrum antifungal, E1210, tested against Aspergillus spp. determined by CLSI and EUCAST broth microdilution methods. Results are shown in Table 2, and the letters indicate the following ranges in μg/mL: […]

Assay [2] has as its system Rhizomucor pusillus 46342. Kind of assay: In vitro antifungal assay (Example IX), microdilution broth, MEC. The conditions noted are these: minimum effective concentration (shortening of hyphae), 35° C., 40-48 h, RPMI1640. A digest of the protocol: (§2)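 Read-out is the minimum effective concentration: lowest compound level causing shorter hyphae than in DMSO controls, echinocandin-style. Broth microdilution used conidia or spores harvested from agar plates, cleared of mycelium and clumps, at a final 1-2×10^4 spores/mL in RPMI1640.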

Assay [3] concerns Aspergillus fumigatus MYA3626. The description is as above. The conditions noted are these: minimum effective concentration (shortening of hyphae), 35° C., 40-48 h, RPMI1640. A digest of the protocol:
as §2

For orientation: MIC means the smallest concentration in the dilution series that meets the test's criterion for growth inhibition. Higher therefore signals a need for much substance. The minimal effective concentration is the smallest amount tested that counted as effective. High values mean weaker potency, low ones greater potency. Turning to `Nc1ncccc1-c1cc(Cc2ccc(Oc3cccc(F)n3)c(F)c2)no1` [compound 258, 3-(3-(3-fluoro-4-((6-fluoropyridin-2-yl)oxy)benzyl)isoxazol-5-yl)pyridin-2-amine], the results for the MIC (against Candida albicans 90028; in assay [1]; with Cryptococcus gattii) were 0.1 to 1 µg/mL (≈ 0.263 to 2.63 µM), 0.01 to 0.1 µg/mL (≈ 0.0263 to 0.263 µM) and 0.1 to 1 µg/mL (≈ 0.263 to 2.63 µM), respectively. In addition, the results for the minimal effective concentration in assay [2] and in assay [3] were 0.1 to 1 µg/mL and 0.01 to 0.1 µg/mL, respectively.

Regarding `[N-]=[N+]=Nc1cccc(NCc2ccc(Cc3cc(-c4cccnc4N)on3)cc2)c1` [compound 231, 3-(3-(4-(((3-azidophenyl)amino)methyl)benzyl)isoxazol-5-yl)pyridin-2-amine], the MIC in the assay with Candida albicans 90028 was 0.1 to 1 µg/mL (≈ 0.252 to 2.52 µM); in assay [1], 0.01 to 0.1 µg/mL (≈ 0.0252 to 0.252 µM); against Cryptococcus gattii, 0.01 to 0.1 µg/mL (≈ 0.0252 to 0.252 µM). The minimal effective concentration is 0.1 to 1 µg/mL in assay [2] and 0.01 to 0.1 µg/mL in assay [3].

Consider `Nc1ncccc1-c1cc(Cc2ccc(Oc3cc(F)cc(F)c3)nc2)no1` [compound 81, 3-(3-((6-(3,5-difluorophenoxy)pyridin-3-yl)methyl)isoxazol-5-yl)pyridin-2-amine], for which the MIC in the assay on Candida albicans 90028 was 0.01 to 0.1 µg/mL (≈ 0.0263 to 0.263 µM); in assay [1] it was not above 0.01 µg/mL; against Cryptococcus gattii, 0.01 to 0.1 µg/mL (≈ 0.0263 to 0.263 µM). Besides, the minimal effective concentration was 0.1 to 1 µg/mL in assay [2] and 0.01 to 0.1 µg/mL in assay [3].

Take `Nc1ncccc1-c1cc(Cc2cnc(Nc3ccccc3F)c(F)c2)no1` [compound 250, 5-((5-(2-aminopyridin-3-yl)isoxazol-3-yl)methyl)-3-fluoro-N-(2-fluorophenyl)pyridin-2-amine]: the MIC was 0.01 to 0.1 µg/mL (≈ 0.0264 to 0.264 µM) in the assay on Candida albicans 90028, 0.01 to 0.1 µg/mL (≈ 0.0264 to 0.264 µM) in assay [1] and 0.1 to 1 µg/mL (≈ 0.264 to 2.64 µM) against Cryptococcus gattii. Also, the figures for the minimal effective concentration in assay [2] and in assay [3] were 0.1 to 1 µg/mL and 0.01 to 0.1 µg/mL, respectively.

Consider `Nc1ncccc1-c1cc(Cc2cnc(OCc3cccc(F)c3)nc2)no1` [compound 249, 3-(3-((2-((3-fluorobenzyl)oxy)pyrimidin-5-yl)methyl)isoxazol-5-yl)pyridin-2-amine], for which the values for the MIC (in the assay with Candida albicans 90028; in assay [1]; in the assay on Cryptococcus gattii) were 0.1 to 1 µg/mL (≈ 0.265 to 2.65 µM), 0.1 to 1 µg/mL (≈ 0.265 to 2.65 µM) and more than 1 µg/mL, respectively. The minimal effective concentration in assay [3] fell in the range of 0.01 to 0.1 µg/mL.

As to `N#CCc1ccc(Cc2cc(-c3cccnc3N)on2)cc1` [compound 2, 2-(4-((5-(2-aminopyridin-3-yl)isoxazol-3-yl)methyl)phenyl)acetonitrile], the MIC (in the assay on Candida albicans 90028; in assay [1]) was more than 1 µg/mL in each case. For the same compound, the minimal effective concentration in assay [2] is more than 1 µg/mL; in assay [3], 0.1 to 1 µg/mL.

As to `Cc1c(OCC(F)(F)F)ccnc1COc1ccc(Cc2cc(-c3cccnc3N)on2)cn1` [compound 217, 3-(3-((6-((3-methyl-4-(2,2,2-trifluoroethoxy)pyridin-2-yl)methoxy)pyridin-3-yl)methyl)isoxazol-5-yl)pyridin-2-amine], the MIC (against Candida albicans 90028; in assay [1]; against Cryptococcus gattii) was more than 1 µg/mL each time. Further, in assay [3], the minimal effective concentration is more than 1 µg/mL.

As to `Nc1ncccc1-c1cc(Cc2ccc(Nc3cc(F)cc(F)c3)nc2)no1` [compound 238, 5-((5-(2-aminopyridin-3-yl)isoxazol-3-yl)methyl)-N-(3,5-difluorophenyl)pyridin-2-amine], the MIC was more than 1 µg/mL with Candida albicans 90028, 0.1 to 1 µg/mL (≈ 0.264 to 2.64 µM) in assay [1] and 0.1 to 1 µg/mL (≈ 0.264 to 2.64 µM) in the assay with Cryptococcus gattii. In assay [3], this compound showed a minimal effective concentration of more than 1 µg/mL.

In the case of `Nc1ncccc1-c1cc(Cc2cnc(Oc3cc(F)cc(F)c3)c(F)c2)no1` [compound 252, 3-(3-((6-(3,5-difluorophenoxy)-5-fluoropyridin-3-yl)methyl)isoxazol-5-yl)pyridin-2-amine], the MIC (in the assay with Candida albicans 90028; in assay [1]; against Cryptococcus gattii) was 0.1 to 1 µg/mL (≈ 0.251 to 2.51 µM) each time. This compound came in with a minimal effective concentration in assay [3] of 0.1 to 1 µg/mL.

`Nc1ncccc1-c1cc(Cc2cnc(Oc3cccc(F)c3)c(F)c2)no1` [compound 256, 3-(3-((5-fluoro-6-(3-fluorophenoxy)pyridin-3-yl)methyl)isoxazol-5-yl)pyridin-2-amine]: the MIC in the assay on Candida albicans 90028 was 0.01 to 0.1 µg/mL (≈ 0.0263 to 0.263 µM); in assay [1], 0.1 to 1 µg/mL (≈ 0.263 to 2.63 µM); against Cryptococcus gattii, more than 1 µg/mL. Moreover, the minimal effective concentration in assay [3] fell in the range of 0.1 to 1 µg/mL.

As to `Nc1ncccc1-c1cc(Cc2ccc(OCc3cc(Cl)nc(Cl)c3)nc2)no1` [compound 219, 3-(3-((6-((2,6-dichloropyridin-4-yl)methoxy)pyridin-3-yl)methyl)isoxazol-5-yl)pyridin-2-amine], the MIC (against Candida albicans 90028; in assay [1]; with Cryptococcus gattii) was more than 1 µg/mL throughout. Further, in assay [3], the minimal effective concentration was 0.1 to 1 µg/mL.

As to `Nc1ncccc1-c1cc(Cc2ccc(Oc3ncccn3)c(F)c2)no1` [compound 259, 3-(3-(3-fluoro-4-(pyrimidin-2-yloxy)benzyl)isoxazol-5-yl)pyridin-2-amine], the MIC is more than 1 µg/mL with Candida albicans 90028, 0.1 to 1 µg/mL (≈ 0.275 to 2.75 µM) in assay [1] and more than 1 µg/mL with Cryptococcus gattii. Further, the minimal effective concentration in assay [3] was 0.01 to 0.1 µg/mL.

Consider `Nc1ncccc1-c1cc(Cc2cnc(OCc3cccc(F)c3)c(F)c2)no1` [compound 251, 3-(3-((5-fluoro-6-((3-fluorobenzyl)oxy)pyridin-3-yl)methyl)isoxazol-5-yl)pyridin-2-amine], for which the MIC (in the assay on Candida albicans 90028; in assay [1]; with Cryptococcus gattii) was 0.1 to 1 µg/mL (≈ 0.254 to 2.54 µM) each time. This compound displayed a minimal effective concentration in assay [3] of 0.01 to 0.1 µg/mL.

With `Nc1ncccc1-c1cc(Cc2cnc(Oc3cc(F)cc(F)c3)nc2)no1` [compound 248, 3-(3-((2-(3,5-difluorophenoxy)pyrimidin-5-yl)methyl)isoxazol-5-yl)pyridin-2-amine], the MIC (against Candida albicans 90028; in assay [1]; against Cryptococcus gattii) was more than 1 µg/mL throughout. Further, in assay [3], the minimal effective concentration is 0.1 to 1 µg/mL.

Consider `Nc1ncccc1-c1cc(Cc2cnc(Oc3ccccc3)c(F)c2)no1` [compound 255, 3-(3-((5-fluoro-6-phenoxypyridin-3-yl)methyl)isoxazol-5-yl)pyridin-2-amine], for which the MIC against Candida albicans 90028 was 0.01 to 0.1 µg/mL (≈ 0.0276 to 0.276 µM); in assay [1], 0.1 to 1 µg/mL (≈ 0.276 to 2.76 µM); in the assay with Cryptococcus gattii, more than 1 µg/mL. Moreover, the minimal effective concentration in assay [3] was 0.01 to 0.1 µg/mL.

For the compound `Nc1ncccc1-c1cc(Cc2ccc(/C=C/c3cccc(F)c3)cc2)no1` [compound 233, (E)-3-(3-(4-(3-fluorostyryl)benzyl)isoxazol-5-yl)pyridin-2-amine], the minimal inhibitory concentration (MIC) (in the assay on Candida albicans 90028; in assay [1]; against Cryptococcus gattii) was more than 1 µg/mL in each case. In assay [3], this compound gave a minimal effective concentration of 0.1 to 1 µg/mL.

For the compound `Nc1ncccc1-c1cc(Cc2cnc(Oc3ccccc3F)c(F)c2)no1` [compound 254, 3-(3-((5-fluoro-6-(2-fluorophenoxy)pyridin-3-yl)methyl)isoxazol-5-yl)pyridin-2-amine], the figures for the MIC (against Candida albicans 90028; in assay [1]; against Cryptococcus gattii) were 0.01 to 0.1 µg/mL (≈ 0.0263 to 0.263 µM), 0.1 to 1 µg/mL (≈ 0.263 to 2.63 µM) and more than 1 µg/mL, respectively. In assay [3], this compound yielded a minimal effective concentration of 0.01 to 0.1 µg/mL.

`Nc1ncccc1-c1cc(Cc2cnc(OCc3ccccc3F)c(F)c2)no1` [compound 260, 3-(3-((5-fluoro-6-((2-fluorobenzyl)oxy)pyridin-3-yl)methyl)isoxazol-5-yl)pyridin-2-amine]: the minimum inhibitory concentration (MIC) is 0.1 to 1 µg/mL (≈ 0.254 to 2.54 µM) in the assay on Candida albicans 90028, 0.1 to 1 µg/mL (≈ 0.254 to 2.54 µM) in assay [1] and more than 1 µg/mL in the assay on Cryptococcus gattii. This compound also returned a minimal effective concentration in assay [3] of 0.1 to 1 µg/mL.

Turning to `Nc1ncccc1-c1cc(Cc2cnc(OCC3CC3)c(F)c2)no1` [compound 247, 3-(3-((6-(cyclopropylmethoxy)-5-fluoropyridin-3-yl)methyl)isoxazol-5-yl)pyridin-2-amine], the MIC against Candida albicans 90028 is 0.01 to 0.1 µg/mL (≈ 0.0294 to 0.294 µM); in assay [1] it was 0.1 to 1 µg/mL (≈ 0.294 to 2.94 µM); against Cryptococcus gattii it was more than 1 µg/mL. This compound had a minimal effective concentration in assay [3] of 0.01 to 0.1 µg/mL.

Values taken from patent publication US11512079B2, “Heterocycle substituted pyridine derivative antifungal agents” (Amplyx Pharmaceuticals, Inc., priority 2017, dated 2022).
